Results reported in paper PMC10408569, “Recruitment of hexahydroquinoline as anticancer scaffold targeting inhibition of wild and mutants EGFR (EGFR^WT, EGFR^T790M, and EGFR^L858R)” (Journal of Enzyme Inhibition and Medicinal Chemistry, 2023).

What was measured:
[1] = tested on: SK-MEL-28; assay: NCI-60 anticancer screening (SRB); assay type: cell-based; settings: Homo sapiens; SK-MEL-28, melanoma; one dose 10 μM; read-out: Growth Inhibition Percentage (GI %)
[2] = tested on: CCRF-CEM; assay: NCI-60 anticancer screening (SRB); assay type: cell-based; settings: Homo sapiens, leukemia, one dose 10 μM, read-out: Growth Inhibition Percentage (GI %)
[3] = tested on: UACC-62; assay: NCI-60 anticancer screening (SRB); assay type: cell-based; settings: Homo sapiens; UACC-62, melanoma; one dose 10 μM; read-out: Growth Inhibition Percentage (GI %)
[4] = tested on: HOP-92; assay: NCI-60 anticancer screening (SRB); assay type: cell-based; settings: Homo sapiens; HOP-92, NSC lung cancer; one dose 10 μM; read-out: Growth Inhibition Percentage (GI %)
[5] = tested on: SNB-75; assay: NCI-60 anticancer screening (SRB); assay type: cell-based; settings: Homo sapiens; SNB-75, CNS cancer; one dose 10 μM; read-out: Growth Inhibition Percentage (GI %)
[6] = tested on: SF-295; assay: NCI-60 anticancer screening (SRB); assay type: cell-based; settings: Homo sapiens; SF-295, CNS cancer; one dose 10 μM; read-out: Growth Inhibition Percentage (GI %)
[7] = tested on: OVCAR-8; assay: NCI-60 anticancer screening (SRB); assay type: cell-based; settings: Homo sapiens; OVCAR-8, ovarian cancer; one dose 10 μM; read-out: Growth Inhibition Percentage (GI %)
[8] = tested on: NCI/ADR-RES; assay: NCI-60 anticancer screening (SRB); assay type: cell-based; settings: Homo sapiens, ovarian cancer, one dose 10 μM, read-out: Growth Inhibition Percentage (GI %)
[9] = tested on: K-562; assay: NCI-60 anticancer screening (SRB); assay type: cell-based; settings: Homo sapiens, K562; K-562, leukemia; one dose 10 μM; read-out: Growth Inhibition Percentage (GI %)
[10] = tested on: MOLT-4; assay: NCI-60 anticancer screening (SRB); assay type: cell-based; settings: Homo sapiens; MOLT-4, leukemia; one dose 10 μM; read-out: Growth Inhibition Percentage (GI %)
[11] = tested on: SF-268; assay: NCI-60 anticancer screening (SRB); assay type: cell-based; settings: Homo sapiens; SF-268, CNS cancer; one dose 10 μM; read-out: Growth Inhibition Percentage (GI %)
[12] = tested on: OVCAR-4; assay: NCI-60 anticancer screening (SRB); assay type: cell-based; settings: Homo sapiens; OVCAR-4, ovarian cancer; one dose 10 μM; read-out: Growth Inhibition Percentage (GI %)
[13] = tested on: UO-31; assay: NCI-60 anticancer screening (SRB); assay type: cell-based; settings: Homo sapiens; UO-31, renal cancer; one dose 10 μM; read-out: Growth Inhibition Percentage (GI %)
[14] = tested on: HS 578T; assay: NCI-60 anticancer screening (SRB); assay type: cell-based; settings: Homo sapiens; HS 578T, breast cancer; one dose 10 μM; read-out: Growth Inhibition Percentage (GI %)
[15] = tested on: OVCAR-3; assay: NCI-60 anticancer screening (SRB); assay type: cell-based; settings: Homo sapiens; OVCAR-3, ovarian cancer; one dose 10 μM; read-out: Growth Inhibition Percentage (GI %)
[16] = tested on: EKVX; assay: NCI-60 anticancer screening (SRB); assay type: cell-based; settings: Homo sapiens, NSC lung cancer, one dose 10 μM, read-out: Growth Inhibition Percentage (GI %)
[17] = tested on: U251; assay: NCI-60 anticancer screening (SRB); assay type: cell-based; settings: Homo sapiens, U-251; U251, CNS cancer; one dose 10 μM; read-out: Growth Inhibition Percentage (GI %)
[18] = tested on: LOX IMVI; assay: NCI-60 anticancer screening (SRB); assay type: cell-based; settings: Homo sapiens, melanoma, one dose 10 μM, read-out: Growth Inhibition Percentage (GI %)
[19] = tested on: MALME-3M; assay: NCI-60 anticancer screening (SRB); assay type: cell-based; settings: Homo sapiens, melanoma, one dose 10 μM, read-out: Growth Inhibition Percentage (GI %)
[20] = tested on: M14; assay: NCI-60 anticancer screening (SRB); assay type: cell-based; settings: Homo sapiens; M14, melanoma; one dose 10 μM; read-out: Growth Inhibition Percentage (GI %)
[21] = tested on: BT-549; assay: NCI-60 anticancer screening (SRB); assay type: cell-based; settings: Homo sapiens; BT-549, breast cancer; one dose 10 μM; read-out: Growth Inhibition Percentage (GI %)
[22] = tested on: NCI-H522; assay: NCI-60 anticancer screening (SRB); assay type: cell-based; settings: Homo sapiens; NCI-H522, NSC lung cancer; one dose 10 μM; read-out: Growth Inhibition Percentage (GI %)
[23] = tested on: CAKI-1; assay: NCI-60 anticancer screening (SRB); assay type: cell-based; settings: Homo sapiens; CAKI-1, renal cancer; one dose 10 μM; read-out: Growth Inhibition Percentage (GI %)
[24] = tested on: HL-60(TB); assay: NCI-60 anticancer screening (SRB); assay type: cell-based; settings: Homo sapiens, leukemia, one dose 10 μM, read-out: Growth Inhibition Percentage (GI %)
[25] = tested on: A498; assay: NCI-60 anticancer screening (SRB); assay type: cell-based; settings: Homo sapiens; A498, renal cancer; one dose 10 μM; read-out: Growth Inhibition Percentage (GI %)
[26] = tested on: NCI-H226; assay: NCI-60 anticancer screening (SRB); assay type: cell-based; settings: Homo sapiens; NCI-H226, NSC lung cancer; one dose 10 μM; read-out: Growth Inhibition Percentage (GI %)
[27] = tested on: MCF7; assay: NCI-60 anticancer screening (SRB); assay type: cell-based; settings: Homo sapiens; MCF7, breast cancer; one dose 10 μM; read-out: Growth Inhibition Percentage (GI %)
[28] = tested on: DU-145; assay: NCI-60 anticancer screening (SRB); assay type: cell-based; settings: Homo sapiens; DU-145, prostate cancer; one dose 10 μM; read-out: Growth Inhibition Percentage (GI %)
[29] = tested on: 786-0; assay: NCI-60 anticancer screening (SRB); assay type: cell-based; settings: Homo sapiens; 786-0, renal cancer; one dose 10 μM; read-out: Growth Inhibition Percentage (GI %)
[30] = tested on: SK-MEL-2; assay: NCI-60 anticancer screening (SRB); assay type: cell-based; settings: Homo sapiens; SK-MEL-2, melanoma; one dose 10 μM; read-out: Growth Inhibition Percentage (GI %)
[31] = tested on: TK-10; assay: NCI-60 anticancer screening (SRB); assay type: cell-based; settings: Homo sapiens; TK-10, renal cancer; one dose 10 μM; read-out: Growth Inhibition Percentage (GI %)
[32] = tested on: COLO 205; assay: NCI-60 anticancer screening (SRB); assay type: cell-based; settings: Homo sapiens; COLO 205, colon cancer; one dose 10 μM; read-out: Growth Inhibition Percentage (GI %)
[33] = tested on: MDA-MB-468; assay: NCI-60 anticancer screening (SRB); assay type: cell-based; settings: Homo sapiens; MDA-MB-468, breast cancer; one dose 10 μM; read-out: Growth Inhibition Percentage (GI %)

Compound	inhibition at 10 µM [1]	inhibition at 10 µM [2]	inhibition at 10 µM [3]	inhibition at 10 µM [4]	inhibition at 10 µM [5]	inhibition at 10 µM [6]	inhibition at 10 µM [7]	inhibition at 10 µM [8]	inhibition at 10 µM [9]	inhibition at 10 µM [10]	inhibition at 10 µM [11]	inhibition at 10 µM [12]	inhibition at 10 µM [13]	inhibition at 10 µM [14]	inhibition at 10 µM [15]	inhibition at 10 µM [16]	inhibition at 10 µM [17]	inhibition at 10 µM [18]	inhibition at 10 µM [19]	inhibition at 10 µM [20]	other results
CCOC(=O)C1=C(N)N(c2ccc(Cl)cc2)C2=C(C(=O)CC(C)(C)C2)C1c1ccccn1 (racemic) [12c, (±)-Ethyl 2-amino-1–(4-chlorophenyl)-7,7-dimethyl-5-oxo-4-(pyridine-2-yl)-1,4,5,6,7,8-hexahydroquinoline-3-carboxylate]	< 10%	< 10%	25%	< 10%	< 10%	< 10%	< 10%	< 10%	< 10%	< 10%	< 10%	< 10%	23%	< 10%	< 10%	< 10%	< 10%	< 10%	< 10%	< 10%	inhibition at 10 µM [21]: < 10%; inhibition at 10 µM [22]: 11%; inhibition at 10 µM [23]: 11%; inhibition at 10 µM [24]: < 10%; inhibition at 10 µM [25]: < 10%; inhibition at 10 µM [26]: < 10%; melting point: 256 to 258 °C; inhibition at 10 µM [27]: 11%; inhibition at 10 µM [28]: < 10%; inhibition at 10 µM [29]: < 10%; inhibition at 10 µM [30]: < 10%; inhibition at 10 µM [31]: < 10%; inhibition at 10 µM [32]: < 10%; inhibition at 10 µM [33]: < 10%
CCOC(=O)C1=C(N)N(c2ccccc2)C2=C(C(=O)CC(C)(C)C2)C1c1cccnc1 (racemic) [12d]	< 10%	< 10%	12%	< 10%	17%	< 10%	< 10%	13%	< 10%	< 10%	< 10%	< 10%	77%	< 10%	< 10%	< 10%	< 10%	< 10%	< 10%	< 10%	inhibition at 10 µM [21]: < 10%; inhibition at 10 µM [22]: 15%; inhibition at 10 µM [23]: < 10%; inhibition at 10 µM [24]: < 10%; inhibition at 10 µM [25]: < 10%; inhibition at 10 µM [26]: < 10%; melting point: 215 to 217 °C; inhibition at 10 µM [27]: < 10%; inhibition at 10 µM [28]: < 10%; inhibition at 10 µM [29]: < 10%; inhibition at 10 µM [30]: < 10%; inhibition at 10 µM [31]: < 10%; inhibition at 10 µM [32]: < 10%; inhibition at 10 µM [33]: < 10%
CCOC(=O)C1=C(N)N(c2ccc(C)cc2)C2=C(C(=O)CC(C)(C)C2)C1c1cccnc1 (racemic) [12e, (±)-Ethyl 2-amino-7,7-dimethyl-1–(4-methylphenyl)-5-oxo-1-phenyl-4-(pyrdin-3-yl)-1,4,5,6,7,8-hexahydroquinoline-3-carboxylate]	< 10%	< 10%	14%	< 10%	14%	< 10%	< 10%	< 10%	< 10%	< 10%	< 10%	< 10%	23%	< 10%	< 10%	< 10%	< 10%	< 10%	< 10%	< 10%	inhibition at 10 µM [21]: < 10%; inhibition at 10 µM [22]: < 10%; inhibition at 10 µM [23]: < 10%; inhibition at 10 µM [24]: < 10%; inhibition at 10 µM [25]: < 10%; inhibition at 10 µM [26]: < 10%; melting point: 261 to 263 °C; inhibition at 10 µM [27]: < 10%; inhibition at 10 µM [28]: < 10%; inhibition at 10 µM [29]: < 10%; inhibition at 10 µM [30]: < 10%; inhibition at 10 µM [31]: < 10%; inhibition at 10 µM [32]: < 10%; inhibition at 10 µM [33]: < 10%
CCOC(=O)C1=C(N)N(c2ccc(Cl)cc2)C2=C(C(=O)CC(C)(C)C2)C1c1cccnc1 (racemic) [12f, (±)-Ethyl 2-amino-1–(4-chlorophenyl)-7,7-dimethyl-5-oxo-4-(pyridin-3-yl)-1,4,5,6,7,8-hexahydroquinoline-3-carboxylate]	< 10%	< 10%	< 10%	< 10%	21%	< 10%	< 10%	11%	< 10%	< 10%	< 10%	13%	21%	16%	< 10%	< 10%	< 10%	12%	< 10%	< 10%	inhibition at 10 µM [21]: < 10%; inhibition at 10 µM [22]: < 10%; inhibition at 10 µM [23]: < 10%; inhibition at 10 µM [24]: < 10%; inhibition at 10 µM [25]: < 10%; inhibition at 10 µM [26]: < 10%; melting point: 261 to 263 °C; inhibition at 10 µM [27]: < 10%; inhibition at 10 µM [28]: < 10%; inhibition at 10 µM [29]: < 10%; inhibition at 10 µM [30]: < 10%; inhibition at 10 µM [31]: < 10%; inhibition at 10 µM [32]: < 10%; inhibition at 10 µM [33]: < 10%
